A value given as a limit tells only on which side of the number the result lay.

The subject of experiment [1] is NIH 3T3 cells. Kind of experiment: Cell migration through 8.0-μm porous Boyden chambers, gradient or uniform chemokine. It counts as cell-based, mouse. The conditions noted are these: for chemoattractant activity (directed cell migration toward a gradient) / random cell migration: NIH 3T3, 8.0-μm pores; for chemoattractant activity (directed cell migration toward a gradient): 3 h; for random cell migration: uniform concentration. How it is done:
(§1) Pseudopodia extension was monitored using a pseudopodia assay kit (ECM 650; Chemicon International) or Costar chambers. Serum-starved cells (75,000) were placed into the upper compartment of a chamber ([…]) equipped with a 3.0-μm porous polycarbonate membrane coated on both sides with an optimal amount of ECM protein (5 μg/ml fibronectin or collagen type I). Cells were allowed to attach and spread on the upper surface of the membrane for 2 h, and then stimulated with LPA (Sigma-Aldrich), insulin, or buffer only, which was placed in the lower chamber to establish a gradient or placed in the upper and lower chamber to form a uniform concentration. Cells were allowed to extend pseudopodia through the pores toward the direction of the gradient for various times. To initiate pseudopodia retraction, the chemoattractant was removed or an equivalent amount of chemoattractant placed in the upper chamber to create a uniform concentration. The cell body on the upper surface was manually removed with a cotton swab and the total pseudopodia protein only on the undersurface was determined using BCA and a microprotein assay system (Pierce Chemical Co.). Additionally, pseudopodia can be stained with 1% crystal violet in 2% ethanol and then the dye eluted with 10% acetic acid, which can be measured in an ELISA plate reader (OD 600) for comparison to a standard curve as previously described (Klemke et al., 1998).
(§2) NIH 3T3 cells were examined for cell migration for 3 h in 8.0-μm porous Boyden chambers containing different concentrations of LPA or insulin placed in 1) the bottom, 2) top, or 3) top and bottom compartments. The number of migratory cells per microscopic field (200×) on the underside of the membrane was counted as described in Example 1 above. Additionally, COS-7 cells were examined for cell migration as described above with respect to NIH 3T3 cells. […] In FIG. 1, each point on the graphs represents the mean±SEM of three triplicate migration chambers of three independent experiments.

A further experiment relates to COS-7 cells. The description is as above. It is filed as cell-based. The conditions noted are these: for chemoattractant activity (directed cell migration toward a gradient) / random cell migration: COS-7, 8.0-μm pores; for random cell migration: uniform concentration. How it is done:
as §1, §2

Experiment [2] deals with NIH 3T3 cells. Put plainly: Pseudopodia extension through 3.0-μm porous membranes toward LPA. The conditions noted are these: 3.0-μm pores. It counts as cell-based, mouse. How it is done: as §1
NIH 3T3 cells were allowed to attach to fibronectin coated 3.0-μm porous membranes for 2 h. Pseudopodia extension was then examined for various times in the absence (NT) or presence of LPA (100 ng/ml) in the bottom, top, or top and bottom compartments. Pseudopodia protein on the underside of the membrane was determined as described in Example 1. Results are set forth in FIG. 2, where each point in the graphs represents the mean±SEM of three triplicate membranes of three independent experiments. COS-7 cells were examined for pseudopodia protrusion in the same manner as for NIH 3T3 cells as described above.
Confocal images of NIH 3T3 pseudopodia protrusion on the undersurface of a 3.0-μm porous membrane in response to LPA (100 ng/ml) as a gradient (LPA bottom) or uniform concentration (LPA top and bottom) were generated. Cells were labeled with cell tracker green and then fixed at the indicated times to visualize protruding pseudopodia on the undersurface of the membrane.

The test system of experiment [3] is NIH 3T3 cells. Put plainly: Pseudopodia retraction after removal of the LPA gradient. It counts as cell-based, mouse. How it is done: as §1
Pseudopodia retraction was studied via the following methods. Pseudopodia extension of NIH 3T3 cells through 3.0-μm pores toward an LPA gradient was examined at 60, 120, 180 and 240 minutes, or the LPA gradient was removed after 60 min and pseudopodia were allowed to retract for the indicated times (LPA Removed). Total pseudopodia protein on the underside of the membrane was determined as described in Example 1.
Pseudopodia were allowed to extend for 60 min (time 0) toward an LPA gradient as described above. The gradient was then removed and pseudopodia were fixed at the indicated times (0, 30, 60, 120 minutes). […]

[4] abbreviates: listed as lysophosphatidic acid.
[5] abbreviates: LPA gradient removed after 60 min extension.

As to insulin, in the experiment with NIH 3T3 cells [1], the “chemoattractant activity (directed cell migration toward a gradient)” value (“chemoattractant activity” for short) is “poor chemoattractant” and the random cell migration result is “promoted random migration”. In the experiment with COS-7 cells, the “chemoattractant activity” value is “poor chemoattractant” and the random cell migration result is listed as “promoted random migration”.
Turning to lysophosphatidic acid [LPA], the “pseudopodia extension, gradient versus uniform concentration” value with NIH 3T3 cells [2] (LPA gradient but not uniform concentration) is “extend pseudopodia through small pores specifically in the direction of the gradient”. Besides, the “time at which extension of pseudopodia was first detected after exposure to the gradient” value with NIH 3T3 cells [2] (LPA gradient) lay in the range of 10 to 15 min. Further, the “time over which pseudopodia extension proceeded linearly” value in the experiment with NIH 3T3 cells [2] (LPA gradient) is 60 to 90 min. For the same substance, the “cells polarized by extending pseudopodia” value in the experiment with NIH 3T3 cells [2] (LPA gradient, confocal microscope) is more than 90%. Also, the “chemoattractant activity” value is recorded as “true chemoattractant” with NIH 3T3 cells [1]; “potent chemoattractant” in the experiment on NIH 3T3 cells [1] (listed as LSA); “potent chemoattractant” in the experiment with NIH 3T3 cells [1] (setting [4]); “true chemoattractant” in the experiment with COS-7 cells; “potent chemoattractant” in the experiment on COS-7 cells (listed as LSA); “potent chemoattractant” in the experiment with COS-7 cells (setting [4]). For the same substance, the random cell migration entry with NIH 3T3 cells [1] and with COS-7 cells was “does not facilitate random cell migration” throughout. For the same substance, the “concentration at which chemotaxis reached a maximum” value was in the range of 100 to 200 ng/mL with NIH 3T3 cells [1] (NIH 3T3, dose dependent) and 100 to 200 ng/mL with COS-7 cells (COS-7, dose dependent). In addition, in the experiment on NIH 3T3 cells [3] (setting [5]), the “cells displaying pseudopodia retraction” value is more than 80%. Further, in the experiment on NIH 3T3 cells [3] (setting [5]), the “onset of pseudopodia retraction after removing the gradient” value is not above 5 min. For the same substance, the “effect of restoring the gradient on retracting pseudopodia” value in the experiment on NIH 3T3 cells [3] (LPA gradient restored after removal) was “inhibited the retraction process and induced pseudopodia growth”.

The values above are taken from US20030224398A1, “Purification of the leading front of migratory cells” (priority 2002, published 2003).
